Experimental data from patent US9980943B2, “Methods of treating muscular dystrophy” (BOARD OF REGENTS OF THE NEVADA SYSTEM OF HIGHER EDUCATION, …, priority 2013, dated 2018).

Columns and labels:
Assay type in all cases: cell-based, mouse
[1] = test system: α7 integrin (LacZ reporter in α7βgal+/− myoblasts); assay: Myoblast α7+/LacZ integrin FDG assay (Burkin assay in myoblasts, 96-well); conditions: α7+/LacZ myoblasts, 96-well
[2] = test system: α7 integrin (LacZ reporter in α7+/LacZ myotubes); assay: Myotube α7 integrin FDG assay (Burkin assay in myotubes, 96-well); conditions: myotubes
[3] = test system: β-galactosidase in CMV-LacZ C2C12 myoblasts; assay: CMV-LacZ secondary screen in C2C12 myoblasts (β-Gal stabilizing assay); conditions: CMV-LacZ C2C12 myoblasts
How it was run: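 Dose-response runs at 0.5–40 μM (0.5, 1, 5, 10, 20, 40 μM; N=2 per point) used a clonal C2C12 line carrying CMV-LacZ. Cells were assayed as myoblasts or as differentiated myotubes, and β-galactosidase levels were read with the FDG fluorogenic substrate.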

[4] = test system: β-galactosidase in CMV-LacZ C2C12 myotubes; assay: CMV-LacZ secondary screen in C2C12 myotubes (β-Gal stabilizing assay); conditions: C2C12 CMV-LacZ myotubes, fold relative to DMSO
How it was run: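 CMV-LacZ C2C12 line (clonal, FDG-screened); myoblasts/myotubes dosed 0.5–40 μM (0.5, 1, 5, 10, 20, 40 μM); n=2 per point; β-gal stabilization read-out.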

SMILES | Burkin Assay in Myoblasts, signal relative to DMSO ([1]; 0.5 uM) | Burkin Assay in Myoblasts, signal relative to DMSO ([1]; 1 uM) | Burkin Assay in Myoblasts, signal relative to DMSO ([1]; 5 uM) | Burkin Assay in Myoblasts, signal relative to DMSO ([1]; 10 uM) | Burkin Assay in Myoblasts, signal relative to DMSO ([1]; 20 uM) | Burkin Assay in Myoblasts, signal relative to DMSO ([1]; 40 uM) | Burkin Assay in Myotubes, α7 integrin LacZ reporter signal relative to DMSO ([2]; 0.5 uM) | Burkin Assay in Myotubes, α7 integrin LacZ reporter signal relative to DMSO ([2]; 1 uM) | Burkin Assay in Myotubes, α7 integrin LacZ reporter signal relative to DMSO ([2]; 5 uM) | Burkin Assay in Myotubes, α7 integrin LacZ reporter signal relative to DMSO ([2]; 10 uM) | Burkin Assay in Myotubes, α7 integrin LacZ reporter signal relative to DMSO ([2]; 20 uM) | Burkin Assay in Myotubes, α7 integrin LacZ reporter signal relative to DMSO ([2]; 40 uM) | CMV-LACZ in Myoblasts (β-galactosidase activity relative to DMSO) ([3]; 0.5 uM) | CMV-LACZ in Myoblasts (β-galactosidase activity relative to DMSO) ([3]; 1 uM) | CMV-LACZ in Myoblasts (β-galactosidase activity relative to DMSO) ([3]; 5 uM) | CMV-LACZ in Myoblasts (β-galactosidase activity relative to DMSO) ([3]; 10 uM) | CMV-LACZ in Myoblasts (β-galactosidase activity relative to DMSO) ([3]; 20 uM) | CMV-LACZ in Myoblasts (β-galactosidase activity relative to DMSO) ([3]; 40 uM) | CMV-LACZ in Myotubes, signal relative to DMSO ([4]; 0.5 uM) | CMV-LACZ in Myotubes, signal relative to DMSO ([4]; 1 uM) | other results
CCCN(C(=O)c1ccc(S(=O)(=O)N2CCCC2)cc1)C1CCS(=O)(=O)C1 (stereo not drawn) [MLS002161853-01] | 0.8569 | 0.8278 | 0.9386 | 1.1978 | 1.073 | 0.9354 | 0.8761 | 0.8092 | 0.9889 | 1.16 | 0.919 | 0.9353 | 1.0131 | 0.8734 | 0.8819 | 0.9436 | 1.0922 | 0.9348 | 1.0524 | 0.8352 | CMV-LACZ in Myotubes, signal relative to DMSO ([4]; 5 uM): 1.1122; CMV-LACZ in Myotubes, signal relative to DMSO ([4]; 10 uM): 0.9103; CMV-LACZ in Myotubes, signal relative to DMSO ([4]; 20 uM): 1.2341; CMV-LACZ in Myotubes, signal relative to DMSO ([4]; 40 uM): 1.0647
CN1C(=O)N(CC(=O)N2CCN(S(=O)(=O)c3ccc(Cl)s3)CC2)C(=O)C12CCCCC2 [MLS002162890-01] | 1.107 | 1.034 | 1.1338 | 1.261 | 0.694 | 0.4924 | 1.051 | 1.185 | 0.9351 | 1.1501 | 0.7452 | 0.803 | 0.8392 | 0.8713 | 0.9701 | 0.9939 | 0.7603 | 0.9507 | 1.0682 | 1.0191 | CMV-LACZ in Myotubes, signal relative to DMSO ([4]; 5 uM): 1.1237; CMV-LACZ in Myotubes, signal relative to DMSO ([4]; 10 uM): 1.0530; CMV-LACZ in Myotubes, signal relative to DMSO ([4]; 20 uM): 1.0140; CMV-LACZ in Myotubes, signal relative to DMSO ([4]; 40 uM): 1.0170
CCN(CC(=O)NCc1cccs1)C(=O)COc1ccc(C(N)=O)cc1 [MLS002163101-01] | 0.9552 | 0.9442 | 0.9699 | 1.251 | 0.9457 | 0.9775 | 1.045 | 0.9075 | 1.101 | 1.302 | 0.7782 | 0.9761 | 0.9991 | 1.0317 | 1.0262 | 1.0313 | 0.9644 | 1.1556 | 1.0533 | 1.1400 | CMV-LACZ in Myotubes, signal relative to DMSO ([4]; 5 uM): 0.8302; CMV-LACZ in Myotubes, signal relative to DMSO ([4]; 10 uM): 0.8407; CMV-LACZ in Myotubes, signal relative to DMSO ([4]; 20 uM): 0.9212; CMV-LACZ in Myotubes, signal relative to DMSO ([4]; 40 uM): 1.5447
CC(C)CN(C(=O)c1cccc(Cl)c1)c1c(N)n(Cc2ccccc2)c(=O)[nH]c1=O [MLS002163670-01] | 1.117 | 1.234 | 1.012 | 0.9468 | 0.8972 | 0.7779 | 1.223 | 1.294 | 0.9778 | 1.072 | 0.8526 | 0.735 | 1.1806 | 0.8738 | 0.8671 | 0.9725 | 0.8611 | 1.4715 | 0.9237 | 1.2044 | CMV-LACZ in Myotubes, signal relative to DMSO ([4]; 5 uM): 0.9788; CMV-LACZ in Myotubes, signal relative to DMSO ([4]; 10 uM): 0.8898; CMV-LACZ in Myotubes, signal relative to DMSO ([4]; 20 uM): 1.1659; CMV-LACZ in Myotubes, signal relative to DMSO ([4]; 40 uM): 1.1235
COc1ccccc1CC(=O)Nc1cc(S(=O)(=O)N2CCOCC2)ccc1N1CCOCC1 [MLS002170630-01] | 1.122 | 0.9708 | 1.0982 | 1.216 | 0.7825 | 0.6735 | 1.03 | 1.075 | 0.9697 | 1.123 | 0.8857 | 1.0714 | 0.9954 | 0.8054 | 0.9890 | 0.9628 | 0.8233 | 0.7387 | 0.8136 | 1.0036 | CMV-LACZ in Myotubes, signal relative to DMSO ([4]; 5 uM): 1.2068; CMV-LACZ in Myotubes, signal relative to DMSO ([4]; 10 uM): 0.9248; CMV-LACZ in Myotubes, signal relative to DMSO ([4]; 20 uM): 0.9710; CMV-LACZ in Myotubes, signal relative to DMSO ([4]; 40 uM): 0.8580
CC1CCN(C(CNS(=O)(=O)c2ccccc2)c2ccccc2)CC1 (stereo not drawn) [MLS002171615-01] | 1.052 | 0.9407 | 0.9747 | 0.8859 | 0.709 | 0.6178 | 1.107 | 1.17 | 0.9709 | 0.9947 | 0.8432 | 0.8303 | 1.0498 | 1.3505 | 0.9273 | 0.9905 | 1.2159 | 0.6726 | 0.9863 | 0.7874 | CMV-LACZ in Myotubes, signal relative to DMSO ([4]; 5 uM): 0.9989; CMV-LACZ in Myotubes, signal relative to DMSO ([4]; 10 uM): 0.9582; CMV-LACZ in Myotubes, signal relative to DMSO ([4]; 20 uM): 1.0111; CMV-LACZ in Myotubes, signal relative to DMSO ([4]; 40 uM): 1.0711
